Results: patent US20100152165A1, “CARBOXYLIC ACID DERIVATIVES” (priority 2006, published 2010)

Assays:
human GPR40 = biological target: T1, human GPR40 (Homo sapiens, UniProt O14842); assay: GPR40 agonist activity measurement (FLIPR, intracellular calcium); type: cell-based; settings: human GPR40-expressed CHO cell strain; fluorescence intensity change one minute after measurement
T1 construct: expressed in transfected cells
Text: Test Method 1: GPR40 Agonist Activity Measurement
i) Cloning of Human GPR40
In accordance with the following procedure, complete length sequence of GPR40 was obtained by a PCR method using a human genomic DNA (Clontech) as the template.
An oligonucleotide consisting of the nucleotide sequence represented by SEQ ID NO:1 was used as the forward primer, and an oligonucleotide consisting of the nucleotide sequence represented by SEQ ID NO:2 as the reverse primer. In this connection, a nucleotide sequence containing a XbaI recognition sequence is added to the […] of each of the aforementioned forward primer and reverse primer. In the PCR, a cycle consisting of 94° C. (15 seconds)/55° C. (30 seconds)/72° C. (1 minute) was repeated 30 times using a Taq DNA polymerase (Ex Taq DNA polymerase; Takara Bio) in the presence of 5% dimethyl sulfoxide (DMSO). As a result, a DNA fragment of about 0.9 kbp was amplified. This DNA fragment was digested with XbaI and then inserted into the XbaI site of a plasmid pEF-BOS-dhfr (Nucleic Acids Research, 18, 5322, 1990) to obtain a plasmid pEF-BOS-dhfr-GPR40.
Nucleotide sequence of GPR40 gene in the plasmid pEF-BOS-dhfr-GPR40 was determined by the dideoxy terminator method using a DNA sequencer (ABI 377 DNA Sequencer; Applied Biosystems). Nucleotide sequence of the GPR40 gene was as the nucleotide sequence represented by SEQ ID NO:3.
ii) Preparation of GPR40 Stable Expression Cell
A CHO dhfr cell (a dihydrofolate reductase (dhfr) gene-deficient CHO cell) was used as the cell for expressing GPR40 protein. In addition, the plasmid pEF-BOS-dhfr-GPR40 obtained in the aforementioned i) was used as the expression plasmid for expressing the GPR40 protein. The CHO dhfr cell in 10% fetal calf serum (FCS)-containing aMEM medium was inoculated into a 6 well plate and cultured overnight to a stage of 80 to 90% confluent, and then gene transfer of 2 μg per well of the plasmid pEF-BOS-dhfr-GPR40 was carried out using a transfection reagent (Lipofectamine 2000; Invitrogen). After 24 hours of the culturing since the gene transfer, the cells were diluted and inoculated again. […] After 20 days of culturing, the thus formed colonies of cells were individually recovered and cultured to obtain CHO cells stably expressing GPR40. Cells showing high reactivity for integral ligands oleic acid and linoleic acid were selected from them.
iii) GPR40 Agonist Activity Measurement
This test was measured by FLIPR (registered trade mark, Molecular Device) using change in the intracellular calcium concentration as the index. The test method is shown below.
A human GPR40-expressed CHO cell strain was inoculated in 6×10^3 cells per well portions into a 384 well black plate (Becton-Dickinson). A Calcium-3 assay kit (Molecular Device) was used as the […] and dissolved in 10 ml per bottle of HBSS-HEPES buffer (pH 7.4, 1×HBSS, 20 mM HEPES, Invitrogen). A 35.68 mg portion of probenecid (Sigma) was dissolved in 250 μl of 1 M NaOH and then adjusted by adding 250 μl of HBSS-HEPES buffer. The fluorescence pigment solution was prepared by mixing 16 ml of HBSS-HEPES buffer, 640 μl of the fluorescence pigment and 32 μl of probenecid, per plate. The medium in the plate was discarded, and the fluorescence pigment solution was dispensed in 40 μl per well portions and incubated at room temperature for 2 hours. Each compound to be tested was dissolved in DMSO, diluted with HBSS-HEPES buffer and then dispensed in 10 μl portions into the plate to start the reaction and measure change in the intracellular calcium concentration by FLIPR. EC50 values of the compounds to be tested were calculated from the dose-response curve of fluorescence intensity changes one minute after the measurement.

MIN6 cell = assay: Insulin secretion promoting action using MIN6 cell; type: cell-based, mouse; settings: relative activity value at 1 μM of compound, control (DMSO) 100%; KRB-HEPES with 2.8 mM or 22.4 mM glucose, 37° C. 2 hours
Method: Test Method 2: Insulin Secretion Promoting Action using MIN6 Cell
In this test, the insulin secretion promoting action of compounds to be tested was examined using a mouse pancreatic β cell strain, MIN6 cell. The test method is shown below.
The MIN6 cell was inoculated onto a 96 well plate to a density of 5×10^4 cells/well (200 μl). As the medium, DMEM medium (25 mM glucose) containing 10% FBS, 55 μM of 2-mercaptoethanol, 100 U/ml of penicillin and 100 μg/ml of streptomycin was used. Two days thereafter, the medium was removed using an aspirator, and the plate was once washed with 200 μl of KRB-HEPES (116 mM NaCl, 4.7 mM KCl, 1.2 mM KH2PO4, 1.2 mM MgSO4, 0.25 mM CaCl2, 25 mM NaHCO3, 0.005% FFA Free BSA, 24 mM HEPES (pH 7.4)) containing 2.8 mM glucose, which had been warmed up to 37° C., and again filled with 200 μl of the same buffer and incubated at 37° C. for 1 hour. After removing the aforementioned buffer using an aspirator, this was again washed with the buffer (200 μl), and then a predetermined concentration of each compound to be tested was added to KRB-HEPES containing 2.8 mM or 22.4 mM of glucose, added in 100 μl portions to respective wells and incubated at 37° C. for 2 hours. The aforementioned samples were collected and diluted 100 times, and the insulin concentration was determined using an insulin RIA kit (Amersham). […]

normal mice = assay: Normal mice single administration oral glucose tolerance test; type: in vivo; settings: male ICR mice; 10 mg/kg oral 30 minutes before glucose (2 g/kg) loading; at 30 minutes of glucose loading, based on control group
Method: Test Method 3: Normal Mice Single Administration Oral Glucose Tolerance Test
This test examined on the blood glucose suppressive action of compounds to be tested after glucose loading using normal mice. Male ICR mice (6 weeks of age) were reared for 1 week in advance, subjected to overnight fasting and then used as animals to be tested. Each compound to be tested was prepared into a 0.5% methyl cellulose suspension and orally administered at a dose of 10 mg/kg 30 minutes before the glucose (2 g/kg) loading. In the control group, 0.5% methyl cellulose was administered. Blood glucose decreasing ratio (%) at the time of 30 minutes of glucose loading was calculated based on the control group.

T1 sequence (O14842 whole entry R211H): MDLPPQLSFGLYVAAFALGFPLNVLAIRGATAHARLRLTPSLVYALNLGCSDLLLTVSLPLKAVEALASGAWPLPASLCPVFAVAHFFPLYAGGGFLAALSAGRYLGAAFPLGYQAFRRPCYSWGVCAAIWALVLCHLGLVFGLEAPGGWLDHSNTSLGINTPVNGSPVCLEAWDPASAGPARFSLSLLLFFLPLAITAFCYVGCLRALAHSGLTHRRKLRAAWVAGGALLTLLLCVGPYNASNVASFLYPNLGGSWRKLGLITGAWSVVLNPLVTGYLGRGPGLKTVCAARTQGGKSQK

Row | SMILES | EC50 (human GPR40) | Insulin secretion promoting action (MIN6 cell) | Blood glucose decreasing ratio (normal mice)
1 | CCCN1CCCc2cccc(CNc3ccc(CCC(=O)[O-])c(F)c3)c21.[Na+] [Example 57] | 0.097 µM | 167% | –
2 | O=C(O)CCc1ccc(OCc2ccc3c(c2)N(CCC(F)(F)F)CCC3)cc1F [Example 73] | 0.073 µM | – | –
3 | CC(=O)N1CCCc2ccc(COc3ccc(CCC(=O)O)c(F)c3)cc21 [Example 74] | 0.075 µM | – | –
4 | O=C(O)CCc1ccc(NCc2ccc3c(c2)N(c2ccccc2)CCC3)cc1F [Example 86] | 0.019 µM | – | –
5 | CCCN1CCCc2c(CNc3ccc(CCC(=O)O)c(F)c3)cccc21 [Example 87] | 0.082 µM | – | –
6 | O=C(O)CCc1ccc(NCc2cccc3c2CCCN3CCc2ccccc2)cc1F [Example 89] | 0.62 µM | – | 21%
7 | O=C(O)CCc1ccc(NCc2cccc3c2CCCN3CCOc2ccccc2)cc1F [Example 104] | 0.42 µM | 162% | 20%
8 | COc1ccccc1OCCN1CCCc2c(CNc3ccc(CCC(=O)O)c(F)c3)cccc21 [Example 176] | 0.091 µM | – | –
9 | COc1ccccc1CCN1CCCc2ccc(CNc3ccc(CCC(=O)O)c(F)c3)c(C)c21 [Example 188] | 0.036 µM | – | 24%
10 | Cc1c(CNc2ccc(CCC(=O)O)c(F)c2)ccc2c1N(c1ccc(C(F)(F)F)cc1)CCC2 [Example 211] | 0.93 µM | – | –
11 | Cc1cccc(N2CCCc3ccc(CNc4ccc(CCC(=O)O)c(F)c4)c(C)c32)c1 [Example 215] | 0.32 µM | – | –
12 | Cc1ccc(CNc2ccc(CCC(=O)O)c(F)c2)c2c1N(CCOc1ccccc1)CCC2 [Example 424] | 0.13 µM | – | –
13 | O=C(O)CCc1ccc(NCc2cccc3c2CCCN3CCOc2ccccc2)nc1 [Example 437] | 0.73 µM | – | –
14 | Cc1c(CNc2ccc(CCC(=O)[O-])c(F)c2)ccc2c1N(c1ccccn1)CCC2.[Na+] [Example 453] | 0.025 µM | – | 24%
15 | O=C(O)[C@@H]1C[C@H]1c1ccc(NCc2cccc3c2CCCN3CCOc2ccccc2)cc1 [Example 455] | 0.36 µM | – | –
